How the values were obtained:
[1] = test system: elastic fibers of the dermis, human skin tissue explants; assay: Morphometric quantification of elastic fibers (elastin expression) in skin explants; format: cell-based; conditions: for Morphometric quantification of elastic fibers in the middle dermis (%) / Morphometric quantification of elastic fibers in the superficial dermis (%): test items applied twice per day, 5 μL per explant, peptides 20 μM (Peptide 8 10 μM), compositions 500 μg/mL, EGF 10 ng/mL
Experimental: (§1) Skin explants were prepared from abdominal plastic surgery. Some explants were delipidated with alcohol to obtain a dehydrated skin.
(§2) These explants were maintained in maintenance medium supplied by the provider Bioprédic International for 5 days. Test items are applied twice per day with 5 μL per explant.
For each time of analysis (D1 and D5), histologies on delipidated explants, treated explants with test items, the DMSO 0.3% control and water control, are performed.
(§3) After receipt in the laboratory, each skin explant in the maintenance medium is delipidated with 5 μL alcohol during 3 hours.
(§4) After 3 hours, all skin explants are treated two per day with test items, and they are incubated at 37° C.+/−2° C., 5% CO2 for 1 day or 5 days. Integrity of the system is realized at day 1 and day 5 with a viability control with MTT.
Histology is realized by the laboratory Gredeco and the immunostaining to elastin and Ki67 are realized by the same laboratory. Immunostaining to filaggrin is realized by the laboratory Intertek.
The immunohistochemical staining intensity in the elastic fibers is evaluated using a semi-quantitative histological score.
The percentage area taken up by elastic fibers in the dermis was calculated in the dermis and the average superficial dermis.

[2] = test system: keratinocytes of the basal layer of the epidermis, human skin tissue explants; assay: Ki67 immunohistochemistry (mitotic index) in skin explants; format: cell-based; conditions: for % of Ki67 positive cells in the basal layer of the epidermis: peptides 20 μM (Peptide 8 10 μM), compositions 500 μg/mL, EGF 10 ng/mL; for number of mitotic cells compared to EGF at day 1: day 1, compared to EGF
Experimental: as §1, §2, §3, §4
Epithelial proliferation was analyzed by immunohistochemistry using anti-Ki67 antibody.
Counting the number of labeled cells (keratinocytes of the basal layer of the epidermis) is performed and provides the total number of basal cells to calculate the % of labeled cells.
The results of the immunohistochemical analysis of Ki67 are reported in Table 4 and expressed as % of labelled at the basal layer of the epidermis. […] Immunohistochemical analysis of mitotic activity is shown in annex 4 with a reminder of the average for each analysed conditions.

Row | Sequence | Morphometric quantification of elastic fibers in the middle dermis (%) ([1]; D 1) | Morphometric quantification of elastic fibers in the superficial dermis (%) ([1]; D 1) | elastic fibers in the middle dermis compared to the water control at D5 [1] | Morphometric quantification of elastic fibers in the middle dermis (%) ([1]; D 5) | Morphometric quantification of elastic fibers in the superficial dermis (%) ([1]; D 5) | elastic fibers in the superficial dermis compared to control water [1] | % of Ki67 positive cells in the basal layer of the epidermis ([2]; D 1) [%] | % of Ki67 positive cells in the basal layer of the epidermis ([2]; D 5) [%] | elastic fibers in the middle dermis at day 1 compared to control water ([1]; day 1, compared to control water) | number of mitotic cells compared to EGF at day 1 [2]
1 | HGPVEMPYTLLYPSSK [0723.01] | 7.59 | 4.45 | an increase | 10.17 | 10.21 | increase by twice | 18.57 | 3.92 | – | –
2 | LDALEPDNR [0723.03] | 4.9 | 3 | an increase | 9 | 11.68 | increase by twice | 22.01 | 10.04 | – | –
3 | QQYGIAASPFLQSAA [0723.07] | 6.46 | 4 | – | 5.33 | 5.15 | – | 22.22 | 5.26 | – | –
4 | RLQSQNDQRGEIIHVK [0723.02] | – | 6.09 | an increase | 9.08 | 7.59 | – | 19.61 | 6.73 | increase doubled | –
5 | RPYYSNAPQEIF [0723.04] | 5.22 | 3.28 | – | 9 | 8.94 | – | 14.97 | 11.36 | – | –
6 | SKPHTIFLPQHTDADYILVVLSGK [0723.08] | 3.52 | 2.7 | – | 7.27 | 5.32 | – | 27.83 | 5.72 | – | an increase
7 | TVFDGVLRPGQL [0723.06] | 4.54 | 3.8 | – | 8.67 | 4.03 | – | 31.97 | 5.04 | – | an increase
8 | VLLEQQEQEPQH [0723.05] | 8.8 | 6.34 | – | 6.61 | 6.26 | – | 9.48 | 3.08 | – | –
